According to ChEMBL document CHEMBL1201862, “PubChem BioAssay data set” (2004):
Activity calls are given as the source filed them.

Tests used:
[1] = molecular target: T1, 1-phosphatidylinositol 4,5-bisphosphate phosphodiesterase beta-3 (Homo sapiens, UniProt Q01970); experiment: Fluorescence-based biochemical high throughput dose response assay to identify inhibitors of phospholipase C isozymes (PLC-B3).
T1 sequence (Q01970 whole entry): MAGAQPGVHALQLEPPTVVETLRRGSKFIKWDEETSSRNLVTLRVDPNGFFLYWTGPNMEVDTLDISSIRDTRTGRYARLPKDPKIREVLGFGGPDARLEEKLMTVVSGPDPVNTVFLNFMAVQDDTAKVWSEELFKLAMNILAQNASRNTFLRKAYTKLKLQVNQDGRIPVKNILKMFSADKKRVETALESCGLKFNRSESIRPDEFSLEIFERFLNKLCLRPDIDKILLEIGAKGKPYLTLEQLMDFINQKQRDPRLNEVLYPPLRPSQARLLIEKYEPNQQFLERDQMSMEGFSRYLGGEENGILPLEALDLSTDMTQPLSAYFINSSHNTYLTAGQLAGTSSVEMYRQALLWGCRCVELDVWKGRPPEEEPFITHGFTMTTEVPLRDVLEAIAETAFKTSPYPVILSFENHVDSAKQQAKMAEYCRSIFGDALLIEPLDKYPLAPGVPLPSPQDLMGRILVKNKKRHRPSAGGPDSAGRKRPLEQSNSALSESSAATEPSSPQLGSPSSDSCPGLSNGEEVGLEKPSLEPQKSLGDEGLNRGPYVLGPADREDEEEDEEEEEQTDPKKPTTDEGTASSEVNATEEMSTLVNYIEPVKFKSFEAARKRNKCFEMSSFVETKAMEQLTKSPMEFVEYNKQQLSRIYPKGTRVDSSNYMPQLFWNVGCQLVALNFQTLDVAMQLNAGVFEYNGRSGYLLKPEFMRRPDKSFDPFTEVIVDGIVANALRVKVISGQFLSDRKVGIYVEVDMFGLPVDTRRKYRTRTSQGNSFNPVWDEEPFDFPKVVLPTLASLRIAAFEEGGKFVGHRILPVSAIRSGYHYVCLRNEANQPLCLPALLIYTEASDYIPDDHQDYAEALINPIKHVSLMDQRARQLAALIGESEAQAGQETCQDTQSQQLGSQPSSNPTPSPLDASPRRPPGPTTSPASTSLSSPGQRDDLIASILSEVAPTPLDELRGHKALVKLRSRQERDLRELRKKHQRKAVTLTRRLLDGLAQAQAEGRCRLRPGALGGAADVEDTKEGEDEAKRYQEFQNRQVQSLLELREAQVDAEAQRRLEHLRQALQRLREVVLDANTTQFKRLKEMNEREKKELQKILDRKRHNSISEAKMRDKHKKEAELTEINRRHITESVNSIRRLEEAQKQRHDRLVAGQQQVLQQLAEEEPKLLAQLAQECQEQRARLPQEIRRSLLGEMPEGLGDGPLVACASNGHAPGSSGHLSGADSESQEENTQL

[2] = molecular target: Bifunctional protein GlmU (Mycobacterium tuberculosis, UniProt P9WMN3); experiment: Inhibitors of Mycobacterial Glucosamine-1-phosphate acetyl transferase (GlmU). Secondary screen.; set-up: species or system Mycobacterium tuberculosis H37Rv
Chain of Bifunctional protein GlmU (P9WMN3 whole entry): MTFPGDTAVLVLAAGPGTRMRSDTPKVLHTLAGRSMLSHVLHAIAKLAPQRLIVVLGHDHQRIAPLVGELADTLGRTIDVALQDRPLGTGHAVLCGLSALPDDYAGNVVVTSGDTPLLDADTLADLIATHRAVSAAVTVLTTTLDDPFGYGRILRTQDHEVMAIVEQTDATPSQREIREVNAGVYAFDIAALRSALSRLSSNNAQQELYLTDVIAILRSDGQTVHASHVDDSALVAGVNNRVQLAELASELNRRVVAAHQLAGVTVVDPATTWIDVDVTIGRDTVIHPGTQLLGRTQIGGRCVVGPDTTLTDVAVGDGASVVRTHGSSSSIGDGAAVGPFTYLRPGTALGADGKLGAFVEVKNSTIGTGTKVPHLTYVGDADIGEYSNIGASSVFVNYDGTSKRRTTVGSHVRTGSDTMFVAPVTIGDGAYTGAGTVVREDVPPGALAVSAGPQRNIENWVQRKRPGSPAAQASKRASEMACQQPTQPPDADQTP

[3] = molecular target: T2, Tyrosyl-DNA phosphodiesterase 2 (Homo sapiens, UniProt O95551); experiment: potency against TDP2 phosphodiesterase activity – biochemical, epi absorbance, IC50, dose response (AID 743297)
T2 sequence (O95551 whole entry): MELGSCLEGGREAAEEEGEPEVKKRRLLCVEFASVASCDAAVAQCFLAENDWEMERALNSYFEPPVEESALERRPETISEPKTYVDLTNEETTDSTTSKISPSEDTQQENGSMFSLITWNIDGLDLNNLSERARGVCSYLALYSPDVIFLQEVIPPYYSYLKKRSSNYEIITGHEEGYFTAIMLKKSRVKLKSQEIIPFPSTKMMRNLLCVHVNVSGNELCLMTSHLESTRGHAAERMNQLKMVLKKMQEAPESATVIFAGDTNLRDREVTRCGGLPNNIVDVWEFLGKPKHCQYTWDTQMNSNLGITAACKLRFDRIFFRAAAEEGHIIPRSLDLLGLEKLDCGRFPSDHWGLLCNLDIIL

[4] = molecular target: Megakaryocyte-associated tyrosine-protein kinase (Homo sapiens, UniProt P42679); format: functional;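 further: affinity measured as one member of a kinase panel (Navigating the Kinome) against MATK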
[5] = molecular target: Cyclin-dependent kinase 5 (Homo sapiens, UniProt Q00535); format: functional;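 further: CDK5 measured as one member of a kinase profiling panel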
Chain of Cyclin-dependent kinase 5 (Q00535 whole entry): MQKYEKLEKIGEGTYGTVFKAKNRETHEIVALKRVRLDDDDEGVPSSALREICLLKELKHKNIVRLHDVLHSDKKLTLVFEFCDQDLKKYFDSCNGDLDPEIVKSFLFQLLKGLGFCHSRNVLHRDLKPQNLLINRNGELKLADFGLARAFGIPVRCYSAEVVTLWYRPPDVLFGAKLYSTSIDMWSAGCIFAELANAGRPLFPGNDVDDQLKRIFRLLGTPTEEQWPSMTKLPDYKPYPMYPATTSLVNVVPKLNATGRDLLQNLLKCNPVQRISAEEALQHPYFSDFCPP

[6] = molecular target: Serine/threonine-protein kinase pim-1 (Homo sapiens, UniProt P11309); format: functional
Chain of Serine/threonine-protein kinase pim-1 (P11309 whole entry): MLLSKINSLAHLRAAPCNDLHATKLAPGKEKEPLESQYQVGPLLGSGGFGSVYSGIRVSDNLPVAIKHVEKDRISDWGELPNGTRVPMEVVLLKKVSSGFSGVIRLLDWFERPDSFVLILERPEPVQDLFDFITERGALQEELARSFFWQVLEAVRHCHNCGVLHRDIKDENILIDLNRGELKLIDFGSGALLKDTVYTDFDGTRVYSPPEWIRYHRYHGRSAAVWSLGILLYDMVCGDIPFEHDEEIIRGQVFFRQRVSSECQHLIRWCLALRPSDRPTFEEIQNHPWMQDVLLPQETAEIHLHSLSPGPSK

[7] = molecular target: Receptor tyrosine-protein kinase erbB-2 (Homo sapiens, UniProt P04626); experiment: Navigating the Kinome. Panel member name: ERBB2; format: functional
[8] = molecular target: cAMP-dependent protein kinase catalytic subunit PRKX (Homo sapiens, UniProt P51817); format: functional
[9] = molecular target: G protein-coupled receptor kinase 5 (Homo sapiens, UniProt P34947); experiment: Navigating the Kinome. Panel member name: GPRK5; format: functional
[10] = molecular target: MAP kinase-activated protein kinase 3 (Homo sapiens, UniProt Q16644); format: functional;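 further: value comes from a kinome-wide profiling panel in which MAPKAPK3 is one of the panel members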
[11] = molecular target: Dual specificity mitogen-activated protein kinase kinase 1 (Homo sapiens, UniProt Q02750); experiment: Navigating the Kinome. Panel member name: MAP2K1; format: functional
Chain of Dual specificity mitogen-activated protein kinase kinase 1 (Q02750 whole entry): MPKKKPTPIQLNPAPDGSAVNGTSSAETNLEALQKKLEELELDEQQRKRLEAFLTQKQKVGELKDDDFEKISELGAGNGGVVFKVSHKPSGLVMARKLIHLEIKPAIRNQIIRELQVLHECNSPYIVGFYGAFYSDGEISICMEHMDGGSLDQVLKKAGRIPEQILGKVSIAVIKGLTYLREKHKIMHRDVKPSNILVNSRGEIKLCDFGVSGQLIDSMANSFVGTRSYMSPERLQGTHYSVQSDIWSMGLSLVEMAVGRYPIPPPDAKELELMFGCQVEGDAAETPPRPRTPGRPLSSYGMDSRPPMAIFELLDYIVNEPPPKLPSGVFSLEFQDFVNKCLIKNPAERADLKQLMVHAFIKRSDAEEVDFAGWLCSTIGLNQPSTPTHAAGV

[12] = molecular target: Fibroblast growth factor receptor 3 (Homo sapiens, UniProt P22607); format: functional
[13] = molecular target: Inhibitor of nuclear factor kappa-B kinase subunit epsilon (Homo sapiens, UniProt Q14164); experiment: Navigating the Kinome. Panel member name: IKBKE; format: functional
Chain of Inhibitor of nuclear factor kappa-B kinase subunit epsilon (Q14164 whole entry): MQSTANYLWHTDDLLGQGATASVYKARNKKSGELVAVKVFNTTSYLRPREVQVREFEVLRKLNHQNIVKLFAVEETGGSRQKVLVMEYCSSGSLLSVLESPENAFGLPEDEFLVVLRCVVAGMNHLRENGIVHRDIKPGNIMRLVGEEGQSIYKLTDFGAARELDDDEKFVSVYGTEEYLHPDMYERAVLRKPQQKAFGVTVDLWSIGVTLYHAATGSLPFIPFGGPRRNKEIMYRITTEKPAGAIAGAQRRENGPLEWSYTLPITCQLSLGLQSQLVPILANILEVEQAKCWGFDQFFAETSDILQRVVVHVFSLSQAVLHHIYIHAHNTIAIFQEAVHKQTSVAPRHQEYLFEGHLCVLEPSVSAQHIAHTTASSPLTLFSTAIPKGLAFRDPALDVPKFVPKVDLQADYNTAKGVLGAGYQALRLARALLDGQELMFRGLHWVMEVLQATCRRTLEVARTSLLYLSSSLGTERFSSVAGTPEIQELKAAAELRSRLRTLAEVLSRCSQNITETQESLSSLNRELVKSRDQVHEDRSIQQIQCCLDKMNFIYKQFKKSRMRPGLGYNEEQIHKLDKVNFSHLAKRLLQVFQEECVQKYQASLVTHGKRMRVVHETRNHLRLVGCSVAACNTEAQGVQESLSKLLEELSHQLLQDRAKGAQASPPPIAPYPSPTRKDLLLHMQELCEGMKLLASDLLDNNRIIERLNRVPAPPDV

[14] = molecular target: Serine/threonine-protein kinase pim-2 (Homo sapiens, UniProt Q9P1W9); format: functional;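 further: value comes from a broad kinase panel profiling study in which PIM2 was one of the panel members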
Chain of Serine/threonine-protein kinase pim-2 (Q9P1W9 whole entry): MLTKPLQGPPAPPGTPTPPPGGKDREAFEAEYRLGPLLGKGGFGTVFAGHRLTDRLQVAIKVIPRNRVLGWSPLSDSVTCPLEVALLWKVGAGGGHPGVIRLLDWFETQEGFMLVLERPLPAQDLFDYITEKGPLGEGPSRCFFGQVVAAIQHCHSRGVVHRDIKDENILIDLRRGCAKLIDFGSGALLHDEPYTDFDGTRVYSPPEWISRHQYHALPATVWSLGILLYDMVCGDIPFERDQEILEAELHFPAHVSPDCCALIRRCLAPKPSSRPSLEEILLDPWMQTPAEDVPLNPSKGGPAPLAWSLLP

[15] = molecular target: Ribosomal protein S6 kinase beta-1 (Homo sapiens, UniProt P23443); format: functional;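 further: measured as one member of a kinome-wide profiling panel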
[16] = molecular target: Insulin-like growth factor 1 receptor (Homo sapiens, UniProt P08069); experiment: Navigating the Kinome. Panel member name: IGF1R; format: functional
Misshapen-like kinase 1 = Misshapen-like kinase 1 (Homo sapiens, UniProt Q8N4C8); format: functional;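 further: kinome panel screen with MINK as the panel member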
[17] = molecular target: Casein kinase II subunit alpha (Homo sapiens, UniProt P68400); format: functional
[18] = molecular target: Tyrosine-protein kinase receptor TYRO3 (Homo sapiens, UniProt Q06418); format: functional;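 further: TYRO3 value obtained as one member of a kinome-wide profiling panel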
[19] = molecular target: Vascular endothelial growth factor receptor 2 (Homo sapiens, UniProt P35968); format: functional
Chain of Vascular endothelial growth factor receptor 2 (P35968 whole entry): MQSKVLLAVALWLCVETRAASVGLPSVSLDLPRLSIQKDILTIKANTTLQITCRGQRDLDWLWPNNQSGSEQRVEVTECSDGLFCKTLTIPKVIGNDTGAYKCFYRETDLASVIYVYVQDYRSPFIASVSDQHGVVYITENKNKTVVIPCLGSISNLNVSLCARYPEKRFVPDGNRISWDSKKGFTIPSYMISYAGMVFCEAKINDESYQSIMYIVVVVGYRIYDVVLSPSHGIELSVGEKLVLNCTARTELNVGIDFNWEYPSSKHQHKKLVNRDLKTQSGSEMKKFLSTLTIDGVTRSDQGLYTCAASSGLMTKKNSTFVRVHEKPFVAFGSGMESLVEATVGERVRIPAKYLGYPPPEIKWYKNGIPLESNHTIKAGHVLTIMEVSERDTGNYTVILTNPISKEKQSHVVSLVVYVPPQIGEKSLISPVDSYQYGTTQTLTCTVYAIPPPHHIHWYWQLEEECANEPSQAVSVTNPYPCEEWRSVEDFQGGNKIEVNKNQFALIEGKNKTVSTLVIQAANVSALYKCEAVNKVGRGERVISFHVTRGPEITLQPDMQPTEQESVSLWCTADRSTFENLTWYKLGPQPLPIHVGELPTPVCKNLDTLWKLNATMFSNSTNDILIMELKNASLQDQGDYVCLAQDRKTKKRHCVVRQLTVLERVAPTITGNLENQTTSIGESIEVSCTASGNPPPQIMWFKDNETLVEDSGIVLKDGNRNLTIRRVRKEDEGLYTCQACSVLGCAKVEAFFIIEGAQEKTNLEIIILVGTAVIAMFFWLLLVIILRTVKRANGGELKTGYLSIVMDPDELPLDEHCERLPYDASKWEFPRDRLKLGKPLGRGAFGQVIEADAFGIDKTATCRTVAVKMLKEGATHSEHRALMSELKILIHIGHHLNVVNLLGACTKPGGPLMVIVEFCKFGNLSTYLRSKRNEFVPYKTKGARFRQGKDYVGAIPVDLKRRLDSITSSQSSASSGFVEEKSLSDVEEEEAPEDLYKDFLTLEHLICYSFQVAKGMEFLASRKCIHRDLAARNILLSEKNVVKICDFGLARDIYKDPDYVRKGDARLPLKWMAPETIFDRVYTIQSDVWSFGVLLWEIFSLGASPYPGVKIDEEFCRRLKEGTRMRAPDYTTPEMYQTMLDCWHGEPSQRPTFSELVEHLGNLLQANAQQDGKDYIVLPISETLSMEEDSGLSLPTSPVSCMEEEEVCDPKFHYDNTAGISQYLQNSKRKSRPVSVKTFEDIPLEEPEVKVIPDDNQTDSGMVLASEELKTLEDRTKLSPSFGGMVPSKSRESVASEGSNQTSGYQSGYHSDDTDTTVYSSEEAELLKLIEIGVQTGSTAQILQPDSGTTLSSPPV

[20] = molecular target: Mitogen-activated protein kinase kinase kinase kinase 4 (Homo sapiens, UniProt O95819); format: functional
[21] = molecular target: Dual specificity tyrosine-phosphorylation-regulated kinase 1A (Homo sapiens, UniProt Q13627); format: functional;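 further: measured against DYRK1A as one member of a broad kinome profiling panel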
[22] = molecular target: Serine/threonine-protein kinase N2 (Homo sapiens, UniProt Q16513); format: functional
Chain of Serine/threonine-protein kinase N2 (Q16513 whole entry): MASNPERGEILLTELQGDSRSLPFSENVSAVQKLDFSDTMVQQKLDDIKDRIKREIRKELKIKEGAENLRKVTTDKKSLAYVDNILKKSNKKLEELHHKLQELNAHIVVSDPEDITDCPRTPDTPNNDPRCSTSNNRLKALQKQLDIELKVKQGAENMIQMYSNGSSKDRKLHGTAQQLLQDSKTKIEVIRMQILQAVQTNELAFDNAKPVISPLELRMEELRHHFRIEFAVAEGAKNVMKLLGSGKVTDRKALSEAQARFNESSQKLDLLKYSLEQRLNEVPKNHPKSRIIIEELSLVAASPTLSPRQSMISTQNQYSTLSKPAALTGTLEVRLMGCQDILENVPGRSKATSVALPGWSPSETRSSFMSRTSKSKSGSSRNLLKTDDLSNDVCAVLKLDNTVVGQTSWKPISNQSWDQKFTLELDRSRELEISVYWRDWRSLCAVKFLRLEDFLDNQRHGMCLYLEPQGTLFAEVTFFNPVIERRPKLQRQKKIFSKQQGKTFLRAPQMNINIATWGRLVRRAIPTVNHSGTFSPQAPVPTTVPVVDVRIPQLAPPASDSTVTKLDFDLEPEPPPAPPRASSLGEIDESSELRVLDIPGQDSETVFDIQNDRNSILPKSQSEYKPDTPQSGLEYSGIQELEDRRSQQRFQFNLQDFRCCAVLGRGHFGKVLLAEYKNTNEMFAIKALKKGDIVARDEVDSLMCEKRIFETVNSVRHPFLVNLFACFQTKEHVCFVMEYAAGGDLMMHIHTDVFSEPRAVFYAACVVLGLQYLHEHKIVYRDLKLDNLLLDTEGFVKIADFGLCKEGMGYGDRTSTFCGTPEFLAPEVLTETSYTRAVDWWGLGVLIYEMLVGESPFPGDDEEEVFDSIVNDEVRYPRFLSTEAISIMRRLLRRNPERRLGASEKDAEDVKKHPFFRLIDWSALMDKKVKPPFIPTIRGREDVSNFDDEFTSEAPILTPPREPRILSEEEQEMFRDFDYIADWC

## Cc1ccc(/C=C2/C(=O)c3ccc(C(=O)O)cc3C2=O)o1
[1]
  IC50: > 122 µM (inactive)
[2]
  IC50: 174 µM (active)
[3]
  IC50: > 128 µM (inactive)

## Clc1cc(NC2CCCCC2)nc(-c2c[nH]c3ncccc23)n1
[4]
  Ki: > 2 µM (inactive)
[5]
  Ki: > 3.98 µM (inactive)
[6]
  Ki: > 3.98 µM (inactive)
[7]
  Ki: > 1.58 µM (inactive)
[8]
  Ki: 0.501 µM (active)
[9]
  Ki: > 3.98 µM (inactive)
[10]
  Ki: > 10 µM (inactive)
[11]
  Ki: 0.251 µM (active)
[12]
  Ki: > 2 µM (inactive)
[13]
  Ki: > 3.16 µM (inactive)
[14]
  Ki: > 2 µM (inactive)
[15]
  Ki: 0.501 µM (active)
[16]
  Ki: > 2 µM (inactive)
Misshapen-like kinase 1
  Ki: 0.00631 µM (active)
[17]
  Ki: 0.251 µM (active)
[18]
  Ki: > 2.51 µM (inactive)
[19]
  Ki: > 2 µM (inactive)
[20]
  Ki: > 0.2 µM (inactive)
[21]
  Ki: 0.631 µM (active)
[22]
  Ki: 0.126 µM (active)
